Measured values taken from patent publication US20240058283A1, “THE MODE OF ACTION OF N-MeDCPA ON TRPC CHANNELS” (West Virginia University Board of Governors on Behalf of …, priority 2022, published 2024).
pIC50: −log10 of the molar value.

Experiments:
[1] = system: bone erosion in collagen-induced arthritis (CIA); assay: Collagen-induced arthritis (CIA) bone erosion in mice; assay type: in vivo
Description: Inflammatory arthritis often requires treatments with serious side effects. Later in arthritis, bone erosion is a major problem that causes severe pain and debilitation. There is no small molecule drug available to specifically treat arthritis bone erosion. […] In previous studies, we had focused on store-operated Ca^2+ entry as the target of ELP-004, since Orail is required for osteoclast differentiation and ELP-004 blocks RANKL-induced osteoclast differentiation and SOCE at similar concentrations. However, ELP-004 blocks bone erosion in vivo at a remarkable 1000-fold higher efficacy, leading us to question the identity of the critical ion channel. To address this question, we performed a series of ELP-004 dose responses on HEK293 cells overexpressing different combinations of STIM/Orai, TRPC channels or CaV1.2. Remarkably, all TRPC channels were highly sensitive to ELP-004, leading us to consider the possibility that TRPC channels are the true target in arthritis-induced bone erosion. We are currently assessing the possibility that ELP-004 may inhibit osteoclastogenesis with higher efficacy when driven by inflammatory cytokines, both in vitro and in vivo. […]

TRPC4 = molecular target: T1, TRPC4 (Homo sapiens, UniProt Q9UBN4); assay: FIG. 4 TRPC4 overexpressing cells, fura, OAG in the presence of Ca2+; assay type: cell-based; conditions: TRPC4 O/E cells, Ca2+ present, N=4
T1 construct: expressed in transfected cells; host or cells: HEK293 (transient transfection)
T1 sequence (Q9UBN4 1-977): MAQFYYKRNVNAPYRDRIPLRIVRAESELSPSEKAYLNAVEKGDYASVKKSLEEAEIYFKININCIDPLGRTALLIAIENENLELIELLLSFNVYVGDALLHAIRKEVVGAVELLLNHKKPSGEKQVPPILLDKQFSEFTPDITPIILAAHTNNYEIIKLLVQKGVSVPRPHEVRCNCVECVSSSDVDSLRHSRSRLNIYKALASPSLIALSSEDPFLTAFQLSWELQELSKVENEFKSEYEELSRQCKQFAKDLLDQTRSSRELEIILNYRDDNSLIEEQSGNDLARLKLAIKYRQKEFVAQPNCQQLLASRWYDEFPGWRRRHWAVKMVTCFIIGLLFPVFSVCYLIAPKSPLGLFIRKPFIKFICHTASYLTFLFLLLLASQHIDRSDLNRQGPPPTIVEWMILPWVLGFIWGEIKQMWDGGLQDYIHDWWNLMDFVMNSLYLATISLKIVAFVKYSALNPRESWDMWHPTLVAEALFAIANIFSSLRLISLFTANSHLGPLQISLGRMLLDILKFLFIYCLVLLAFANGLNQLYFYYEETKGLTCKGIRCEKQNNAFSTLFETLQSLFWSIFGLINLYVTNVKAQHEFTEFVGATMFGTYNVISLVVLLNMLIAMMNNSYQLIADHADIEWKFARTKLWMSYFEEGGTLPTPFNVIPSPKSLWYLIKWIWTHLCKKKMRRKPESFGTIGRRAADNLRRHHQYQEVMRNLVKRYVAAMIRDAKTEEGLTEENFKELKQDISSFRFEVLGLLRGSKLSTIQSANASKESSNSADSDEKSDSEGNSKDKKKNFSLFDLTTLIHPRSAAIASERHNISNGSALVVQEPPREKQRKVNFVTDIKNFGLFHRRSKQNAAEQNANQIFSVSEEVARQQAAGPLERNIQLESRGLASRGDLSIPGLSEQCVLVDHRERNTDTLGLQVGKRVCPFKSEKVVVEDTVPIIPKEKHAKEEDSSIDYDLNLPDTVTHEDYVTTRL
Description: The assay was done in the presence of Ca^2+. OAG (1-Oleoyl-2-acetyl-sn-glycerol) is a cell permeable DAG analog and directly activates these TRPC channels (i.e. TRPC4 and TRPC5).

CCC(=O)N(C)c1ccc(Cl)c(Cl)c1 [ELP-004, N-(3,4-dichlorophenyl)-N-methylpropanamide]
efficacy of blocking bone erosion in vivo relative to RANKL-induced osteoclast differentiation and SOCE ([1]; in vivo versus in vitro concentrations): 1000 fold | bone erosion in collagen-induced arthritis ([1]; mice, even after symptoms of arthritis were measurable): strongly suppressed bone erosion | pIC50 (TRPC4): 6.76
